In PMC12670164, “In vitro and clinical data demonstrate negligible risk of drug–drug interactions with opelconazole, a novel inhaled antifungal agent” (Journal of Antimicrobial Chemotherapy, 2025):
In brackets after ≈: the same amount, converted by molar mass. Several values for one entry are separate records, joined by “and”; a condition that tells them apart may be missing. Equal entries are not always repeated. Where two headings read alike, the source gives them in different places.

Tests used:
[1] = target: T1, CYP3A4 (Homo sapiens, UniProt P08684); type: in vitro ADME; details: incubated with 0.01 and 0.1 µM opelconazole
T1 sequence (P08684 whole entry): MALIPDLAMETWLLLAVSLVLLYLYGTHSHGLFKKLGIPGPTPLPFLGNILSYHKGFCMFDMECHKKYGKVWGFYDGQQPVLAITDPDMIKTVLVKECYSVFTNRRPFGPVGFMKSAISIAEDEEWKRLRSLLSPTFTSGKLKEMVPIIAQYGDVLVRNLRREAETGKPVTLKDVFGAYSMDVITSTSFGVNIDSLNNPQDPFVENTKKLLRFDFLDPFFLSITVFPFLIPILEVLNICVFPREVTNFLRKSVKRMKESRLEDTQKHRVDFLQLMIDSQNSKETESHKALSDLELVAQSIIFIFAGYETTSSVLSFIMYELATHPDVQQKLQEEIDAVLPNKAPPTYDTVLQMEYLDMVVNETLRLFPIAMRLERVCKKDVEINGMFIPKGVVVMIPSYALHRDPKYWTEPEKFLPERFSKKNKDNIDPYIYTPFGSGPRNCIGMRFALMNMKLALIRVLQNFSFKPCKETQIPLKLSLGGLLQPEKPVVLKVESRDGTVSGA
Protocol: (§1) The testing of opelconazole as a potential substrate of CYP1A2, 2B6, 2C8, 2C9, 2C19, 2D6 and 3A4 was determined in vitro using recombinant CYP enzymes. Two concentrations of opelconazole (0.01 and 0.1 µM) were tested with each of the seven CYPs.
(§2) The relative contributions of CYP3A4 and CYP2C9 were ∼75% and 25%, respectively, when incubated with 0.01 and 0.1 µM opelconazole.

[2] = target: CYP2C9 (Homo sapiens, UniProt P11712); assay: Reaction phenotyping with recombinant CYP enzymes (opelconazole as substrate); type: in vitro ADME; details: incubated with 0.01 and 0.1 µM opelconazole
Chain of CYP2C9 (P11712 whole entry): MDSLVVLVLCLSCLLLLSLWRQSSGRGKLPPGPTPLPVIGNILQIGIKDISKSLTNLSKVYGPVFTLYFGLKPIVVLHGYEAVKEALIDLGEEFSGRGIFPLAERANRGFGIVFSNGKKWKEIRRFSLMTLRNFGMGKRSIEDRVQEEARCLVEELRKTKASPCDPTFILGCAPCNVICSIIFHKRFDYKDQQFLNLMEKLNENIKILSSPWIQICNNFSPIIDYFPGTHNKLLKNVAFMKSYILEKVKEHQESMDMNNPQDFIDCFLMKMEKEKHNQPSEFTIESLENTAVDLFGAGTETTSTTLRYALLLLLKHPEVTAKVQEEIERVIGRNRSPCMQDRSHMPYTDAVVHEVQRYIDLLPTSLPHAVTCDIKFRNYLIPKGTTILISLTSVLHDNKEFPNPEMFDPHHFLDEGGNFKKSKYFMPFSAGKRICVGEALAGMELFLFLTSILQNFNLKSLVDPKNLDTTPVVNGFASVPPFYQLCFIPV
Protocol: as §1, §2

[3] = target: T1, CYP3A4; details: for IC50: read-out: IC50, CYP3A4
Protocol: The potential for opelconazole to inhibit CYP isoforms was tested in vitro in human liver microsomes. […] Preincubation of the human liver microsomes for periods of 0 min without NADPH and 30 min with NADPH, plus 30 min without NADPH were included to assess for a time-dependent inhibition effect. Two structurally diverse substrates (testosterone and midazolam) were tested to assess substrate-dependent inhibition.

[4] = tested on: CYP1A2; assay: CYP induction, mRNA endpoint, cryopreserved human hepatocytes; details: for CYP1A2 mRNA increase: concentration-dependent, 72 h
Protocol: The potential for opelconazole to act as an inducer of CYP isoforms CYP1A2, CYP2B6 and CYP3A4 was assessed in vitro using an mRNA endpoint across three donors in cryopreserved human hepatocytes. A drug is interpreted as an inducer if: (1) it increases mRNA expression of a CYP enzyme in a concentration-dependent manner and (2) the fold change of CYP mRNA expression relative to vehicle control is ≥2-fold at the drug’s expected hepatic concentrations.[23]
(§3) A cytotoxicity assessment using MTT was performed in one of the three donors used for the induction studies prior to dosing.

[5] = tested on: CYP3A4
Protocol: The potential for opelconazole to act as an inducer of CYP isoforms CYP1A2, CYP2B6 and CYP3A4 was assessed in vitro using an mRNA endpoint across three donors in cryopreserved human hepatocytes.
as §3

[6] = tested on: CYP2B6; assay: CYP induction, mRNA endpoint, cryopreserved human hepatocytes; type: in vitro ADME; details: any of the three donors
Protocol: (§4) The hepatocyte cells were dosed with opelconazole (0.012, 0.03, 0.12, 0.3, 1.2 and 3 μM) and positive control compounds (omeprazole for CYP1A2 and rifampicin for CYP3A4).

[7] = tested on: cryopreserved human hepatocytes; assay: MTT cytotoxicity assessment in hepatocytes; type: cell-based; details: up to 3 μM, one donor
Protocol: as §4

[8] = tested on: OAT1, OAT3, OCT1, OCT2, OATP1B1, OATP1B3, MATE-1, MATE2-K, P-gp, BCRP, BSEP; assay: Opelconazole as substrate of carrier transporters; type: in vitro ADME, human; details: 0.5 and 5 μM; MDCKII, HEK293 cells, BSEP sf9 vesicles
Protocol: Human transporter protein interactions with opelconazole as a potential substrate and/or inhibitor were assessed for the following key carrier transporters: organic anion transporters, OAT1 and OAT3; organic cation transporters, OCT1 and OCT2; OATP1B1 and OATP1B3; multidrug and toxin extrusion, MATE-1 and MATE2-K; key ATP-binding cassette (ABC) transporters including P-gp, breast cancer resistance protein (BCRP) and bile salt export pump (BSEP). Two concentrations of opelconazole, 0.5 and 5 μM, were tested using MDCKII cells, human embryonic kidney 293 cells and BSEP-transfected sf9 membrane vesicles and then analysed by LC-tandem MS to determine transporter inhibition and whether opelconazole was a transporter substrate. The viability of experimental test systems was confirmed with controls and known probe substrates and probe inhibitors.

[9] = Phase 1 study: safety and tolerability; type: in vivo, human
Protocol: Safety and tolerability were assessed by monitoring the incidence, nature and severity of adverse events (AEs) as well as by vital-sign measurements, 12-lead ECGs, clinical laboratory testing (haematology, chemistry and urinalysis), physical examination and lung function testing [forced expiratory volume in one second (FEV1) and forced vital capacity (FVC)].

[10] = tested on: Aspergillus fumigatus clinical strains; parameters: method as in PMID 33340279; details: cited from earlier work
[11] = parameters: method as in PMID 33340279; details: available PK data, cited from earlier work
[12] = substrate midazolam, 30-min preincubation

Cc1cc(N2CCN(c3ccc(C(=O)Nc4ccc(F)cc4)cc3)CC2)ccc1OC[C@@H]1CO[C@@](Cn2cncn2)(c2ccc(F)cc2F)C1 [opelconazole]
relative contribution of CYP3A4 to metabolism of opelconazole [1]: ~75%
relative contribution of CYP2C9 to metabolism of opelconazole [2]: ~25%
IC50 [3, 12]: ~150 nM
IC50 ([3]; substrate midazolam, without pre-incubation, 0.001–0.25 µM): 123 nM
IC50 ([3]; substrate testosterone, 30-min preincubations with or without NADPH): 150 nM
IC50 ([3]; substrate testosterone, without pre-incubation, 0.001–0.25 µM): > 250 nM
IC50, CYP3A4 [3, 12]: ~0.102 µg/mL (≈ 0.149 µM)
time-dependent inhibition of CYP3A4 [3, 12]: not evident
opelconazole concentration giving threshold induction outcome ([4]; CYP1A2, in vitro): 0.3 μM and 204 ng/mL
CYP1A2 mRNA increase ([4]; donor 1, opelconazole ≥0.3 μM): 2.72 fold
CYP1A2 mRNA increase ([4]; donor 2, opelconazole ≥0.3 μM): 1.97 fold
CYP3A4 mRNA expression increase ([5]; donor 1, only at 0.3 μM, 72 h): 2.17 fold
CYP3A4 mRNA expression increase ([5]; donors 2 and 3, any concentration (0.012–3 μM)): < 2 fold
CYP2B6 mRNA expression [6]: did not increase mRNA expression
cytotoxicity (MTT) [7]: no cytotoxicity was observed
substrate of carrier transporters [8]: not a substrate
headache considered related to inhaled opelconazole, participants ([9]; 5/24 participants, all mild, 14.8 mg twice daily for 14 days with midazolam/caffeine): 20.8%
post-dose acute bronchospasm ([9]; any participant who received opelconazole): no evidence
changes in lung function (FEV1 and FVC) ([9]; any timepoint during the study): No clinically significant changes
deaths or serious AEs ([9]; healthy volunteers N = 24, 14.8 mg twice daily for 14 days): No deaths or serious AEs were reported
tolerability ([9]; inhaled 14.8 mg twice daily): generally well tolerated
minimal inhibitory concentration required to inhibit 90% of clinical strains [10]: 1 µg/mL
Cmax (low systemic exposure) [11]: 1 ng/mL
Cmax ([11]; read-out: Cmax (low systemic exposure)): 1.6 nM
